Experimental data: patent US20240384268A1, “Oligonucleotides” (Hudson Institute of Medical Research, priority 2021, published 2024)
In the oligonucleotide strings, read from the 5' end, every base follows the letter of its sugar. An asterisk marks phosphorothioate; unmarked linkages are phosphodiester. Other units and linkages are bracketed, terminal groups are in braces. A string of capitals states the bases alone. d = 2'-deoxy (DNA); m = 2'-O-methyl

The substances below were run against T1, human TLR9 (Homo sapiens, UniProt Q9NR96) (assay: HEK-TLR9 NF-κB-luciferase reporter, ODN2006 stimulation). Conditions: HEK-TLR9; 500 nM 2′OMe or PS oligos; 200 nM ODN2006.
T1 construct: HA; host or cells: 293XL-hTLR9-HA (HEK293)
T1 sequence (Q9NR96 26-1032): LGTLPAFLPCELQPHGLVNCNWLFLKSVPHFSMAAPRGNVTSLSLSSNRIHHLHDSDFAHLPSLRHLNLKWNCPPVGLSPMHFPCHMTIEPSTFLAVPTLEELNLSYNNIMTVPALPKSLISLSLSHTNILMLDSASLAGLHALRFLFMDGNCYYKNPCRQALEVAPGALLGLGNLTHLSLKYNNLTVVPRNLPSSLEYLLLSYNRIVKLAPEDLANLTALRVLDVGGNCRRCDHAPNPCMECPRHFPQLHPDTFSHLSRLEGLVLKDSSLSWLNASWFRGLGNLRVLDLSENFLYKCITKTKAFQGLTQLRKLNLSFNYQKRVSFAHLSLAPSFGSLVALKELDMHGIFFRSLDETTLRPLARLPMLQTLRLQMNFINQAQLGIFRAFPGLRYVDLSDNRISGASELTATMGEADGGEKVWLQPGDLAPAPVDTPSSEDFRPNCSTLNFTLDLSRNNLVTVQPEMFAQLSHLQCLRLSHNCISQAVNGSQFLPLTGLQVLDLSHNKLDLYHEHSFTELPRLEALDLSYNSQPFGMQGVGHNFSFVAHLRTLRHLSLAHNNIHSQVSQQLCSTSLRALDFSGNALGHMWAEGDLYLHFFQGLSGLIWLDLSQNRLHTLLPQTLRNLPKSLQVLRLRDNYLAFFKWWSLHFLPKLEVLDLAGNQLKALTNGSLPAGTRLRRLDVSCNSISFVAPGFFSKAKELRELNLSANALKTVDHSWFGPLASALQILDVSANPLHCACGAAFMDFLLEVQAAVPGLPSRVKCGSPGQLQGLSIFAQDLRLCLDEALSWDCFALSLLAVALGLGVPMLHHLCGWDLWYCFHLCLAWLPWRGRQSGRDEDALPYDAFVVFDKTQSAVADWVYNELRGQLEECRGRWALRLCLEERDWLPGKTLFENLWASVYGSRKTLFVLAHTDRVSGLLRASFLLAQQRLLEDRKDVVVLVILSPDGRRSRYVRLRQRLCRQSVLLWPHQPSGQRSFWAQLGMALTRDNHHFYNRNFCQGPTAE
Format: cell-based

| Substance | inhibition of TLR9 sensing of ODN2006 (in words) |
| --- | --- |
| mG*mC*mA*mG*mU*C*T*C*C*A*T*G*T*C*C*mC*mA*mG*mG*mC (GCAGUCTCCATGTCCCAGGC; antisense; sugars from the 5' end m5 d10 m5, all phosphorothioate, methylation of C not given here) [[CDKN2B-AS1]2234] | did not inhibit TLR9 |

Same assay, conditions: HEK-TLR9; 500 nM ASO 45 min, then 200 nM ODN2006 overnight; percentage of ODN2006 only

| Substance | TLR9-500 nM: averaged NF-κB-Luciferase relative to ODN2006 [%] |
| --- | --- |
| mG*mC*mA*mG*mU*C*T*C*C*A*T*G*T*C*C*mC*mA*mG*mG*mC (GCAGUCTCCATGTCCCAGGC; antisense; sugars from the 5' end m5 d10 m5, all phosphorothioate, methylation of C not given here) [[CDKN2B-AS1]2234] | 90.04 |
| mG*mU*mC*mU*mC*C*A*T*G*T*C*C*C*A*G*mG*mC*mC*mU*mC (mG*mU*mC*mU*mC*dC*dA*dT*dG*dT*dC*dC*dC*dA*dG*mG*mC*mC*mU*mC) [[CDKN2B;AS1]2231] | 77.80 |
| mG*mU*mG*mU*mC*C*T*T*C*A*T*G*C*T*T*mU*mG*mG*mA*mU (GUGUCCTTCATGCTTUGGAU; antisense; sugars from the 5' end m5 d10 m5, all phosphorothioate, methylation of C not given here) [[CDKN2B-AS1]1415] | 98.99 |
| mG*mU*mG*mU*mU*T*T*T*A*A*T*T*T*T*G*mU*mA*mG*mA*mG (mG*mU*mG*mU*mU*dT*dT*dT*dA*dA*dT*dT*dT*dT*dG*mU*mA*mG*mA*mG) [[CDKN2B-AS1]611] | 98.50 |
| mU*mA*mU*mU*mU*C*C*A*C*A*T*G*C*C*C*mA*mG*mU*mG*mU (mU*mA*mU*mU*mU*dC*dC*dA*dC*dA*dT*dG*dC*dC*dC*mA*mG*mU*mG*mU; antisense) [[CDKN2B-AS1]627] | 71.20 |
